{"source": "paper PMC3856494", "about": "“Radiofluorination and biological evaluation of N-aryl-oxadiazolyl-propionamides as potential radioligands for PET imaging of cannabinoid CB2 receptors” (Organic and Medicinal Chemistry Letters, 2013)", "key": {"[1]": {"assay": "In vitro radiochemical stability", "assay_type": "physicochemical", "settings": "40°C, after 30 min of incubation", "experimental": "In vitro radiochemical stabilities of [^18F]1 and [^18F]2 were investigated in 0.9% NaCl solution, Dulbecco’s phosphate buffer, 0.01 M Tris–HCl (pH 7.4 at 21°C), and EtOH at 40°C for 90 min. Samples were taken at 15, 30, 60, and 90 min after incubation and analyzed by radio-TLC and radio-HPLC."}, "[2]": {"assay": "Ex vivo biodistribution (organ distribution) in mice", "settings": "i.v. 300 to 400 kBq, female CD1 mice", "experimental": "Female CD1 mice (10 to 12 weeks old, 20 to 25 g) received an injection of 300 to 400 kBq of [^18F]1 or [^18F]2 with specific activities of >450 GBq/μmol in 200 μL of 0.9% NaCl/10% EtOH into the tail vein. The animals were anesthetized (CO2/O2 mixture) for blood and urine sampling and euthanized by luxation of the cervical spine at 5, 30, and 60 min after injection (p.i.) (n = 2 to 5 per time). The organs of interest were removed and weighed, and the activities were measured by γ counting using a calibrated γ counter Wallac Wizard 1470 (Perkin Elmer Inc., Waltham, MA, USA). The percentage of injected dose per gram of wet tissue (% ID/g wet weight) was calculated."}}, "data": [{"smiles": "O=C(CCc1nc(-c2ccc(F)cc2Br)no1)Nc1ccc2c(c1)c1ccccc1n2CC[18F]", "note": "[[^18F]1]", "values": [{"measurement": "intact tracer", "setting": "[1]; 0.9% NaCl", "result": 95, "unit": "%"}, {"measurement": "intact tracer", "setting": "[1]; Dulbecco’s phosphate buffer", "result": 94, "unit": "%"}, {"measurement": "intact tracer", "setting": "[1]; EtOH", "result": 93, "unit": "%"}, {"measurement": "intact tracer", "setting": "[1]; Tris–HCl", "result": 89, "unit": "%"}, {"measurement": "Radioactivity uptake, Adrenals, Control 5 min", "setting": "[2]", "result": "4.16 ± 6.23", "unit": "% ID/g"}, {"measurement": "Radioactivity uptake, Adrenals, Control 30 min", "setting": "[2]", "result": "3.31 ± 0.99", "unit": "% ID/g"}, {"measurement": "Radioactivity uptake, Adrenals, Control 60 min", "setting": "[2]", "result": "3.16 ± 1.25", "unit": "% ID/g"}, {"measurement": "Radioactivity uptake, Bladder, Control 5 min", "setting": "[2]", "result": "2.23 ± 1.39", "unit": "% ID/g"}, {"measurement": "Radioactivity uptake, Bladder, Control 30 min", "setting": "[2]", "result": "1.65 ± 0.43", "unit": "% ID/g"}, {"measurement": "Radioactivity uptake, Bladder, Control 60 min", "setting": "[2]", "result": "3.27 ± 1.94", "unit": "% ID/g"}, {"measurement": "Radioactivity uptake, Blood, Control 5 min", "setting": "[2]", "result": "1.94 ± 0.44", "unit": "% ID/g"}, {"measurement": "Radioactivity uptake, Blood, Control 30 min", "setting": "[2]", "result": "1.44 ± 0.41", "unit": "% ID/g"}, {"measurement": "Radioactivity uptake, Blood, Control 60 min", "setting": "[2]", "result": "1.94 ± 0.69", "unit": "% ID/g"}, {"measurement": "Radioactivity uptake, Brain, Control 5 min", "setting": "[2]", "result": "1.31 ± 0.24", "unit": "% ID/g"}, {"measurement": "Radioactivity uptake, Brain, Control 30 min", "setting": "[2]", "result": "0.76 ± 0.22", "unit": "% ID/g"}, {"measurement": "Radioactivity uptake, Brain, Control 60 min", "setting": "[2]", "result": "0.92 ± 0.27", "unit": "% ID/g"}, {"measurement": "Radioactivity uptake, Femur, Control 5 min", "setting": "[2]", "result": "2.00 ± 0.38", "unit": "% ID/g"}, {"measurement": "Radioactivity uptake, Femur, Control 30 min", "setting": "[2]", "result": "1.37 ± 0.50", "unit": "% ID/g"}, {"measurement": "Radioactivity uptake, Femur, Control 60 min", "setting": "[2]", "result": "1.84 ± 0.35", "unit": "% ID/g"}, {"measurement": "Radioactivity uptake, Gonads, Control 5 min", "setting": "[2]", "result": "1.06 ± 0.94", "unit": "% ID/g"}, {"measurement": "Radioactivity uptake, Gonads, Control 30 min", "setting": "[2]", "result": "1.02 ± 0.26", "unit": "% ID/g"}, {"measurement": "Radioactivity uptake, Gonads, Control 60 min", "setting": "[2]", "result": "1.33 ± 0.50", "unit": "% ID/g"}, {"measurement": "Radioactivity uptake, Heart, Control 5 min", "setting": "[2]", "result": "3.39 ± 0.45", "unit": "% ID/g"}, {"measurement": "Radioactivity uptake, Heart, Control 30 min", "setting": "[2]", "result": "1.43 ± 0.47", "unit": "% ID/g"}, {"measurement": "Radioactivity uptake, Heart, Control 60 min", "setting": "[2]", "result": "1.66 ± 0.37", "unit": "% ID/g"}, {"measurement": "Radioactivity uptake, Kidney, Control 5 min", "setting": "[2]", "result": "13.40 ± 5.66", "unit": "% ID/g"}, {"measurement": "Radioactivity uptake, Kidney, Control 30 min", "setting": "[2]", "result": "2.68 ± 0.37", "unit": "% ID/g"}, {"measurement": "Radioactivity uptake, Kidney, Control 60 min", "setting": "[2]", "result": "1.65 ± 0.49", "unit": "% ID/g"}, {"measurement": "Radioactivity uptake, Large intestine, Control 5 min", "setting": "[2]", "result": "1.91 ± 2.66", "unit": "% ID/g"}, {"measurement": "Radioactivity uptake, Large intestine, Control 30 min", "setting": "[2]", "result": "3.24 ± 5.61", "unit": "% ID/g"}, {"measurement": "Radioactivity uptake, Large intestine, Control 60 min", "setting": "[2]", "result": "1.54 ± 0.42", "unit": "% ID/g"}, {"measurement": "Radioactivity uptake, Liver, Control 5 min", "setting": "[2]", "result": "11.00 ± 1.04", "unit": "% ID/g"}, {"measurement": "Radioactivity uptake, Liver, Control 30 min", "setting": "[2]", "result": "4.38 ± 1.19", "unit": "% ID/g"}, {"measurement": "Radioactivity uptake, Liver, Control 60 min", "setting": "[2]", "result": "5.29 ± 1.22", "unit": "% ID/g"}, {"measurement": "Radioactivity uptake, Lung, Control 5 min", "setting": "[2]", "result": "3.68 ± 0.62", "unit": "% ID/g"}, {"measurement": "Radioactivity uptake, Lung, Control 30 min", "setting": "[2]", "result": "1.65 ± 0.70", "unit": "% ID/g"}, {"measurement": "Radioactivity uptake, Lung, Control 60 min", "setting": "[2]", "result": "1.77 ± 0.74", "unit": "% ID/g"}, {"measurement": "Radioactivity uptake, Muscle, Control 5 min", "setting": "[2]", "result": "2.10 ± 0.33", "unit": "% ID/g"}, {"measurement": "Radioactivity uptake, Muscle, Control 30 min", "setting": "[2]", "result": "1.02 ± 0.50", "unit": "% ID/g"}, {"measurement": "Radioactivity uptake, Muscle, Control 60 min", "setting": "[2]", "result": "0.89 ± 0.19", "unit": "% ID/g"}, {"measurement": "Radioactivity uptake, Pancreas, Control 5 min", "setting": "[2]", "result": "4.97 ± 0.62", "unit": "% ID/g"}, {"measurement": "Radioactivity uptake, Pancreas, Control 30 min", "setting": "[2]", "result": "1.50 ± 0.74", "unit": "% ID/g"}, {"measurement": "Radioactivity uptake, Pancreas, Control 60 min", "setting": "[2]", "result": "1.13 ± 0.11", "unit": "% ID/g"}, {"measurement": "Radioactivity uptake, Plasma, Control 5 min", "setting": "[2]", "result": "2.52 ± 0.58", "unit": "% ID/g"}, {"measurement": "Radioactivity uptake, Plasma, Control 30 min", "setting": "[2]", "result": "1.88 ± 0.58", "unit": "% ID/g"}, {"measurement": "Radioactivity uptake, Plasma, Control 60 min", "setting": "[2]", "result": "2.50 ± 0.87", "unit": "% ID/g"}, {"measurement": "Radioactivity uptake, Small intestine, Control 5 min", "setting": "[2]", "result": "4.36 ± 2.09", "unit": "% ID/g"}, {"measurement": "Radioactivity uptake, Small intestine, Control 30 min", "setting": "[2]", "result": "10.51 ± 8.38", "unit": "% ID/g"}, {"measurement": "Radioactivity uptake, Small intestine, Control 60 min", "setting": "[2]", "result": "22.03 ± 8.32", "unit": "% ID/g"}]}]}
